Test results taken from patent US8148404B2, “Modulators of CB1 receptors” (7TM Pharma A/S, priority 2006, dated 2012).

Biological target: T1, human CB1 receptor (Homo sapiens, UniProt P21554)
T1 construct: expressed in transfected cells; membranes used
Assay: Cannabinoid Receptor-1 functional assay: inhibition of CP55940-induced [35S]GTPγS binding to membranes of CHO-K1 cells expressing human CB1
Type: biochemical
Details: 3 nM CP55940, [35S]GTPγS SPA, hCB1 membranes; read-out: IC50 value for antagonizing a CB1 receptor agonist
Description: Transfection and Cell Culture—The cDNA encoding the human CB1 (Cannabinoid Receptor-1) receptor (GenBank accession number NM_016083) was cloned from a human adipose tissue cDNA library and cloned into the eukaryotic expression vector pcDNA3.1 (Invitrogen).
Chinese Hamster Ovary cells (CHO-K1) stably expressing recombinant human CB1 were generated by transfecting the plasmid containing the coding sequence of the human CB1 receptor in CHO-K1 cells, using lipofectamin, according to the manufacturer instructions. Resistant clones were selected in the presence of 600 μg/ml G418 (Life technology). Stably transfected CHO-K1 cells were maintained in Ham's F-12 culture medium (Invitrogen), supplemented with 10% fetal calf serum (Invitrogen), 100 U/ml penicillin, 100 μg/ml streptomycin (Life Technology), and 600 μg/ml G418.
Functional activities of the above examples of compounds of the invention were assessed in vitro by measuring their ability to inhibit CP55940-induced [^35S]GTPγS binding to membranes prepared from CHO-K1 cells expressing the human CB1 receptor (described in Transfection and Cell Culture). CP55940 is a well known non-selective CB1 and CB2 receptor agonist (e.g Felder et al., 1995, Molecular Pharmacology, (48) 443-50). Membranes were prepared by a standard procedure. Briefly, cells were harvested using 10 mM EDTA and collected by centrifugation. Pelleted cells were homogenized in ice-cold 20 mM Hepes (pH 7.4), 10 mM EDTA and protease inhibitors (Complete protease inhibitor cocktail tablet, Roche) using an Ultra Turrax Homogenizer. The homogenate was centrifuged at 14 000 rpm for 45 min. at 4° C. The resultant pellet was resuspended in the same buffer but with only 0.1 mM EDTA and was again centrifuged at 14 000 rpm for 45 min. at 4° C. The resulting pellet (membranes) was resuspended in 20 mM Hepes (pH 7.4), 0.1 mM EDTA, 2 mM MgCl2 and protease inhibitors and protein concentration was determined by Micro BCA Protein Assay Reagent Kit (Pierce Biotechnology) according to the manufacturer instructions. The [^35S]GTPγS SPA (Scintillation Proximity Assay) binding assay was performed by incubating 5 μg/well hCB1-membranes with 1 nM [^35S]GTPγS (Perkin Elmer—NEG 030H) in the presence of 3 nM of CP55940 and various concentrations of the test compounds at room temperature for 1 hr in 96-well microtiter plates. 0.4 mg/well SPA beads (PVT-WGA; RPNQ0001 Amersham Pharmacia Biotech) were then added and the incubation continued for further 30 min. on an orbital shaker. The assay buffer contained 50 mM HEPES (pH 7.5), 50 mM NaCl, 2.5 mM MgCl2, 0.1% BSA, 1 μM GDP and 100 μg/ml Saponin. Microtiter plates were centrifuged at 1500 rpm for 5 min. and radioactivity was read immediately using a Topcounter (PerkinElmer Life Sciences). Data were analyzed and IC50 values determined by non-linear regression using the Prism software (GraphPad Software, San Diego).

T1 sequence (P21554 whole entry): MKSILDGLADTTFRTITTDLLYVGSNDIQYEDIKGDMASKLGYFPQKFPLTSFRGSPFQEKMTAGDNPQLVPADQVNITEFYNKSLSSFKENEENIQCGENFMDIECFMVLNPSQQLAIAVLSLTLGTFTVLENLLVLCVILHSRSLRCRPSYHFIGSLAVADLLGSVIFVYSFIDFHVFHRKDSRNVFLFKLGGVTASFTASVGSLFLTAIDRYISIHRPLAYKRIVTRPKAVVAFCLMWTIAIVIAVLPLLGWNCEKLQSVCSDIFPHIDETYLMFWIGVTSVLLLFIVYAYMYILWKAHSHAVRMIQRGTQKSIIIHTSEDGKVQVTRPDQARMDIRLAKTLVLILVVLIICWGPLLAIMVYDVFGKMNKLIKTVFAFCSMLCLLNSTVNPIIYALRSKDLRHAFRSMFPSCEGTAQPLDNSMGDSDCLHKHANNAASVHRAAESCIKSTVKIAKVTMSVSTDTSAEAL

SMILES	IC50
O=C(O)Cc1c(C(=O)N2CCC(c3cccs3)CC2)nn(-c2ccccc2Cl)c1-c1ccc(Cl)cc1 [[1.23], [5-(4-Chloro-phenyl)-1-(2-chloro-phenyl)-3-(4-thiophen-2-yl-piperidine-1-carbonyl)-1H-pyrazol-4-yl]-acetic acid]	< 300 nM
O=C(O)Cc1c(C(=O)N2CCC(O)(c3csc(Br)n3)CC2)nn(-c2ccccc2Cl)c1-c1ccc(Cl)cc1 [[1.24], [3-[4-(2-Bromo-thiazol-4-yl)-4-hydroxy-piperidine-1-carbonyl]-5-(4-chloro-phenyl)-1-(2-chloro-phenyl)-1H-pyrazol-4-yl]-acetic acid]	< 300 nM
O=C(O)Cc1c(C(=O)N2CCC(O)(c3cccc(F)c3F)CC2)nn(-c2ccccc2Cl)c1-c1ccc(Cl)cc1 [[1.25], {5-(4-Chloro-phenyl)-1-(2-chloro-phenyl)-3-[4-(2,3-difluoro-phenyl)-4-hydroxy-piperidine-1-carbonyl]-1H-pyrazol-4yl}-acetic acid]	< 300 nM
O=C(O)Cc1c(C(=O)N2CCC(c3ccc(F)cc3F)CC2)nn(-c2ccccc2Cl)c1-c1ccc(Cl)cc1 [[1.26], {1-(2-Chloro-phenyl)-5-(4-chloro-phenyl)-3-[4-(2,4-difluoro-phenyl)-piperidine-1-carbonyl]-1H-pyrazol-4-yl}-acetic acid]	< 300 nM
O=C(O)Cc1c(C(=O)N2CCC(c3ccccc3F)CC2)nn(-c2ccccc2Cl)c1-c1ccc(Cl)cc1 [[1.27], {1-(2-Chloro-phenyl)-5-(4-chloro-phenyl)-3-[4-(2-fluoro-phenyl)-piperidine-1-carbonyl]-1H-pyrazol-4-yl}-acetic acid]	< 300 nM
O=C(O)Cc1c(C(=O)N2CCC(c3ccc(C(F)(F)F)cc3)CC2)nn(-c2ccccc2Cl)c1-c1ccc(Cl)cc1 [[1.28], {1-(2-Chloro-phenyl)-5-(4-chloro-phenyl)-3-[4-(4-trifluoromethyl-phenyl)-piperidine-1-carbonyl]-1H-pyrazol-4-yl}-acetic acid]	< 300 nM
O=C(O)Cc1c(C(=O)N2CCC(c3ccc(Cl)cc3)CC2)nn(-c2ccccc2Cl)c1-c1ccc(Cl)cc1 [[1.29], {1-(2-Chloro-phenyl)-5-(4-chloro-phenyl)-3-[4-(4-chloro-phenyl)-piperidine-1-carbonyl]-1H-pyrazol-4-yl}-acetic acid]	< 300 nM
O=C(O)Cc1c(C(=O)N2CCC(c3cccc(C(=O)O)c3)CC2)nn(-c2ccccc2Cl)c1-c1ccc(Cl)cc1 [[1.30], 3-{1-[4-Carboxymethyl-1-(2-chloro-phenyl)-5-(4-chloro-phenyl)-1H-pyrazole-3-carbonyl]-piperidin-4-yl}-benzoic acid]	3000 to 10000 nM
O=C(O)Cc1c(C(=O)N2CCC(c3cccc(Cl)c3)CC2)nn(-c2ccccc2Cl)c1-c1ccc(Cl)cc1 [[1.31], {1-(2-Chloro-phenyl)-5-(4-chloro-phenyl)-3-[4-(3-chloro-phenyl)-piperidine-1-carbonyl]-1H-pyrazol-4-yl}-acetic acid]	< 300 nM
O=C(O)Cc1c(C(=O)N2CCC(c3ccncc3)CC2)nn(-c2ccccc2Cl)c1-c1ccc(Cl)cc1 [[1.32], [1-(2-Chloro-phenyl)-5-(4-chloro-phenyl)-3-(3,4,5,6-tetrahydro-2H-[4,4′]bipyridinyl-1-carbonyl)-1H-pyrazol-4-yl}-acetic acid]	300 to 3000 nM
O=C(O)Cc1c(C(=O)N2CCC(c3ccccc3)CC2)nn(-c2ccccc2Cl)c1-c1ccc(Cl)cc1 [[1.33], [1-(2-Chloro-phenyl)-5-(4-chloro-phenyl)-3-(4-phenyl-piperidine-1-carbonyl)-1H-pyrazol-4-yl]-acetic acid]	< 300 nM
N#Cc1cccc(C2CCN(C(=O)c3nn(-c4ccccc4Cl)c(-c4ccc(Cl)cc4)c3CC(=O)O)CC2)c1 [[1.34], {1-(2-Chloro-phenyl)-5-(4-chloro-phenyl)-3-[4-(3-cyano-phenyl)-piperidine-1-carbonyl]-1H-pyrazol-4-yl}-acetic acid]	< 300 nM
O=C(O)Cc1c(C(=O)N2CCC(c3cc(Cl)cc(Cl)c3)CC2)nn(-c2ccccc2Cl)c1-c1ccc(Cl)cc1 [[1.35], {1-(2-Chloro-phenyl)-5-(4-chloro-phenyl)-3-[4-(3,5-dichloro-phenyl)-piperidine-1-carbonyl]-1H-pyrazol-4-yl}-acetic acid]	< 300 nM
O=C(O)Cc1c(C(=O)N2CCC(c3cc(F)cc(F)c3)CC2)nn(-c2ccccc2Cl)c1-c1ccc(Cl)cc1 [[1.36], {1-(2-Chloro-phenyl)-5-(4-chloro-phenyl)-3-[4-(3,5-difluoro-phenyl)-piperidine-1-carbonyl]-1H-pyrazol-4-yl}-acetic acid]	< 300 nM
COc1cccc(C2CCN(C(=O)c3nn(-c4ccccc4Cl)c(-c4ccc(Cl)cc4)c3CC(=O)O)CC2)c1 [[1.37], {1-(2-Chloro-phenyl)-5-(4-chloro-phenyl)-3-[4-(3-methoxy-phenyl)-piperidine-1-carbonyl]-1H-pyrazol-4-yl}-acetic acid]	< 300 nM
O=C(O)Cc1c(C(=O)N2CCCC2c2ccc(C(F)(F)F)cc2)nn(-c2ccccc2Cl)c1-c1ccc(Cl)cc1 (stereo not shown) [[1.38], {1-(2-Chloro-phenyl)-5-(4-chloro-phenyl)-3-[2-(4-trifluoromethyl-phenyl)-pyrrolidine-1-carbonyl]-1H-pyrazol-4-yl}-acetic acid]	< 300 nM
O=C(O)Cc1c(C(=O)N2CCC(c3ccc(C(F)(F)F)cc3)C2)nn(-c2ccccc2Cl)c1-c1ccc(Cl)cc1 (stereo not shown) [[1.39], {1-(2-Chloro-phenyl)-5-(4-chloro-phenyl)-3-[3-(4-trifluoromethyl-phenyl)-pyrrolidine-1-carbonyl]-1H-pyrazol-4-yl}-acetic acid]	< 300 nM
O=C(O)Cc1c(C(=O)N2CCC(c3cccc(C(F)(F)F)c3)CC2)nn(-c2ccccc2Cl)c1-c1ccc(Cl)cc1 [[1.40], {1-(2-Chloro-phenyl)-5-(4-chloro-phenyl)-3-[4-(3-trifluoromethyl-phenyl)-piperidine-1-carbonyl]-1H-pyrazol-4-yl}-acetic acid]	< 300 nM
COC[C@@H]1CCCN1C(=O)c1nn(-c2ccccc2Cl)c(-c2ccc(Cl)cc2)c1CC(=O)O [[1.41], [1-(2-Chloro-phenyl)-5-(4-chloro-phenyl)-3-((S)-2-methoxymethyl-pyrrolidine-1-carbonyl)-1H-pyrazol-4-yl]-acetic acid]	300 to 3000 nM
O=C(O)Cc1c(C(=O)N2CCC(O)(c3ccc(F)c(C(F)(F)F)c3)CC2)nn(-c2ccccc2Cl)c1-c1ccc(Cl)cc1 [[1.42], {1-(2-Chloro-phenyl)-5-(4-chloro-phenyl)-3-[4-(4-fluoro-3-trifluoromethyl-phenyl)-4-hydroxy-piperidine-1-carbonyl]-1H-pyrazol-4-yl}-acetic acid]	< 300 nM
O=C(O)Cc1c(C(=O)N2CCC(O)(c3ccc(F)c(Cl)c3)CC2)nn(-c2ccccc2Cl)c1-c1ccc(Cl)cc1 [[1.43], [3-[4-(3-Chloro-4-fluoro-phenyl)-4-hydroxy-piperidine-1-carbonyl]-1-(2-chloro-phenyl)-5-(4-chloro-phenyl)-1H-pyrazol-4-yl]-acetic acid]	< 300 nM
O=C(O)Cc1c(C(=O)N2CC[C@H](c3ccccc3)[C@@H](O)C2)nn(-c2ccccc2Cl)c1-c1ccc(Cl)cc1 [[1.44], [1-(2-Chloro-phenyl)-5-(4-chloro-phenyl)-3-((3R,4R)-3-hydroxy-4-phenyl-piperidine-1-carbonyl)-1H-pyrazol-4-yl]-acetic acid]	300 to 3000 nM
